{"source": "ChEMBL document CHEMBL5727946", "about": "“PD-1/PD-L1 inhibitors” (2020)"}
{"target": "Programmed cell death protein 1/Programmed cell death 1 ligand 1 (Homo sapiens, UniProt Q15116+Q9NZQ7)", "sequence (Q15116 whole entry, the tested form may be a part)": "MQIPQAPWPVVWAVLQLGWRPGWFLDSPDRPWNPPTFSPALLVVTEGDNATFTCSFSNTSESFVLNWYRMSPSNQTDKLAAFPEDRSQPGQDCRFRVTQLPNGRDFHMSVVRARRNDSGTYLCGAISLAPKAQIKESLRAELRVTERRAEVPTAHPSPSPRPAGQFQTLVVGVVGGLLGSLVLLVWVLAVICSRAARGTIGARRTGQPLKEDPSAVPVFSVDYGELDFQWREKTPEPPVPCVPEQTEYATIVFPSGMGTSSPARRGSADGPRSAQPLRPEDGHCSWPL", "sequence (Q9NZQ7 whole entry, the tested form may be a part)": "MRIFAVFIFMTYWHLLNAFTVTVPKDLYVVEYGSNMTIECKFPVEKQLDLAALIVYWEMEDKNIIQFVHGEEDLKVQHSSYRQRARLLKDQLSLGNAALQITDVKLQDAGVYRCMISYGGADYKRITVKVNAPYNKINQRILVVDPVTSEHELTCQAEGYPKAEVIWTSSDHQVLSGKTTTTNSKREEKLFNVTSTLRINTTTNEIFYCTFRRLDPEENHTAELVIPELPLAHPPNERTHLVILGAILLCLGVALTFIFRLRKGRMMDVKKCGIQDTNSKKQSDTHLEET", "assay": "PD-1/PD-L1 & CTLA/CD80 Biochemical Protein-Protein Interaction Assay: Compounds were tested in biochemical protein-protein interaction assays to determine if they can specifically block the interaction between the extracellular domains of PD-1/PD-L1 or CTLA/CD80. Binding of the protein pairs is measured using a bead based Amplified Luminescent Proximity Homogeneous Assay (ALPHA) platform. […] Final protein concentration in the assays were 0.3 nM (His tagged PD-L1), 2.5 nM (biotinylated Fc-PD-1), 1 nM (His tagged CTLA4) and 1 nM (biotinylated CD80).", "format": "protein-complex assay", "units": {"IC50": "nM"}}
{"compound": "COc1nc(O[C@H]2CCc3c(-c4cccc(-c5cnc([C@@H](C)NC[C@H]6CCC(=O)N6)c(OC)n5)c4Cl)cccc32)c(Cl)cc1CN1CC[C@@H](C(=O)O)C1", "IC50": "≤ 0.064"}
{"compound": "CCS(=O)(=O)NC(=O)[C@@H]1CCN(Cc2cc(Cl)c(O[C@H]3CCc4c(-c5cccc(-c6ccc(CNC[C@@H]7CCC(=O)N7)c(OC)n6)c5Cl)cccc43)nc2OC)C1", "IC50": 0.117}
{"compound": "COc1nc(-c2cccc(-c3cccc4c3CC[C@@H]4Oc3nc(OC)c(CN4CC[C@@H](C(=O)NS(C)(=O)=O)C4)cc3Cl)c2Cl)ccc1CN1CC(C)(O)C1", "IC50": "≤ 0.064"}
{"compound": "COc1nc(-c2cccc(-c3cccc4c3CC[C@@H]4Oc3nc(OCc4cncc(Cl)c4)c(CNC4(C(=O)O)CC4)cc3C(F)(F)F)c2Cl)ccc1CNC[C@@H]1CCC(=O)N1", "IC50": 0.101}
{"compound": "COc1nc(-c2cccc(-c3cccc4c3CC[C@@H]4Oc3nc(OC)c(CN4CC[C@@H](C(=O)NS(=O)(=O)C(F)F)C4)cc3Cl)c2Cl)ccc1CNC[C@@H]1CCC(=O)N1", "IC50": 0.152}
{"compound": "COc1nc(-c2cccc(-c3cccc4c3CC[C@@H]4Oc3nc(OC)c(CN4CC(C(=O)NS(=O)(=O)C(F)F)C4)cc3Cl)c2Cl)ccc1CNC[C@@H]1CCC(=O)N1", "IC50": 0.199}
{"compound": "COc1nc(-c2cccc(-c3cccc4c3CC[C@@H]4Oc3nc(OCc4cncc(C#N)c4)c(CN4CC[C@@H](C(=O)O)C4)cc3Cl)c2Cl)ccc1CNC[C@@H]1CCC(=O)N1", "IC50": "≤ 0.064"}
{"compound": "COc1nc(-c2cccc(-c3cccc4c3CC[C@@H]4Oc3nc(OC)c(CN4CCC[C@@H]4C(=O)O)cc3Cl)c2Cl)ccc1CNC[C@@H]1CCC(=O)N1", "IC50": "≤ 0.064"}
{"compound": "COc1nc(-c2cccc(-c3cccc4c3CC[C@@H]4Oc3nc(OC)c(CN4CC[C@@H](C(=O)NS(C)(=O)=O)C4)cc3Cl)c2Cl)ccc1CNC[C@@H]1CCC(=O)N1", "IC50": "≤ 0.064"}
{"compound": "COc1nc(-c2cccc(-c3cccc4c3CC[C@@H]4Oc3nc(OC)c(CN4CCC[C@H]4C(=O)O)cc3Cl)c2Cl)ccc1CNC[C@@H]1CCC(=O)N1", "IC50": "≤ 0.064"}
{"compound": "COc1nc(-c2cccc(-c3cccc4c3CC[C@@H]4Oc3nc(OC)c(CN4CC(C(=O)NS(C)(=O)=O)C4)cc3Cl)c2Cl)ccc1CN1CC(C)(O)C1", "IC50": 0.088}
{"compound": "COc1nc(-c2cccc(-c3cccc4c3CC[C@@H]4Oc3nc(OCc4cncc(F)c4)c(CN4CC5(C(=O)O)CCC4CC5)cc3Cl)c2Cl)ccc1CNC[C@@H]1CCC(=O)N1", "IC50": "≤ 0.064"}
{"compound": "COc1nc(-c2cccc(-c3cccc4c3CC[C@@H]4Oc3nc(OC)c(CNC4(C(=O)O)CCC4)cc3Cl)c2Cl)ccc1CNC[C@@H]1CCC(=O)N1", "IC50": "≤ 0.064"}
{"compound": "CCOc1nc(O[C@H]2CCc3c(-c4cccc(-c5ccc(CNC[C@@H]6CCC(=O)N6)c(OC)n5)c4Cl)cccc32)c(Cl)cc1CN1CC2(C(=O)O)CCC1CC2", "IC50": "≤ 0.064"}
{"compound": "COc1nc(-c2cccc(-c3cccc4c3CC[C@@H]4Oc3nc(OCc4cncc(C#N)c4)c(CN4CC[C@H](C(=O)O)C4)cc3Cl)c2Cl)ccc1CNC[C@@H]1CCC(=O)N1", "IC50": "≤ 0.064"}
{"compound": "COc1nc(-c2cccc(-c3cccc4c3CC[C@@H]4Oc3nc(OC)c(CN4CC(C(=O)O)C4)cc3Cl)c2Cl)ccc1CN1CC(C)(O)C1", "IC50": "≤ 0.064"}
{"compound": "COc1nc(-c2cccc(-c3cccc4c3CC[C@@H]4Oc3nc(OCC#N)c(CN4CC5(C(=O)O)CCC4CC5)cc3Cl)c2Cl)ccc1CNC[C@@H]1CCC(=O)N1", "IC50": "≤ 0.064"}
{"compound": "COc1nc(-c2cccc(-c3cccc4c3CC[C@@H]4Oc3nc(OCc4cncc(C#N)c4)c(CN4CC5(C(=O)O)CCC4CC5)cc3Cl)c2Cl)ccc1CNC[C@@H]1CCC(=O)N1", "IC50": "≤ 0.064"}
{"compound": "COc1nc(-c2cccc(-c3cccc4c3CC[C@@H]4Oc3nc(OC)c(CN4CC[C@H](C(=O)NS(C)(=O)=O)C4)cc3Cl)c2Cl)ccc1CNC[C@@H]1CCC(=O)N1", "IC50": "≤ 0.064"}
{"compound": "CCOC(=O)C1CN(Cc2cc(Cl)c(O[C@H]3CCc4c(-c5cccc(-c6ccc(CNC[C@@H]7CCC(=O)N7)c(OC)n6)c5Cl)cccc43)nc2OC)C1", "IC50": 1.99}
{"compound": "COc1nc(-c2cccc(-c3cccc4c3CC[C@@H]4Oc3nc(OC)c(CN4CCC[C@@H](C(=O)NS(C)(=O)=O)C4)cc3Cl)c2Cl)ccc1CNC[C@@H]1CCC(=O)N1", "IC50": 0.068}
{"compound": "COC(=O)[C@@H]1CCN(Cc2cc(Cl)c(O[C@H]3CCc4c(-c5cccc(-c6ccc(CNC[C@@H]7CCC(=O)N7)c(OC)n6)c5Cl)cccc43)nc2OC)C1", "IC50": 3.9}
{"compound": "COc1nc(-c2cccc(-c3cccc4c3CC[C@@H]4Oc3nc(OC)c(CNC4(C(=O)O)CC4)cc3Cl)c2Cl)ccc1CNC[C@@H]1CCC(=O)N1", "IC50": "≤ 0.064"}
{"compound": "COc1nc(-c2cccc(-c3cccc4c3CC[C@@H]4Oc3nc(OC)c(CNC4(C(=O)O)CCOCC4)cc3Cl)c2Cl)ccc1CNC[C@@H]1CCC(=O)N1", "IC50": "≤ 0.064"}
{"compound": "COc1nc(-c2cccc(-c3cccc4c3CC[C@@H]4Oc3nc(OC)c(CN4CCC[C@@]4(C)C(=O)O)cc3Cl)c2Cl)ccc1CNC[C@@H]1CCC(=O)N1", "IC50": "≤ 0.064"}
{"compound": "COc1nc(-c2cccc(-c3cccc4c3CC[C@@H]4Oc3nc(OC)c(CN[C@@H]4CCC[C@@H]4C(=O)O)cc3Cl)c2Cl)ccc1CNC[C@@H]1CCC(=O)N1", "IC50": "≤ 0.064"}
{"compound": "COc1nc(-c2cccc(-c3cccc4c3CC[C@@H]4Oc3nc(OC(F)F)c(CN4CC5(C(=O)O)CCC4CC5)cc3Cl)c2Cl)ccc1CNC[C@@H]1CCC(=O)N1", "IC50": 0.169}
{"compound": "CCOc1nc(O[C@H]2CCc3c(-c4cccc(-c5ccc(CNC[C@@H]6CCC(=O)N6)c(OC)n5)c4Cl)cccc32)c(Cl)cc1CN1CC[C@H](C(=O)O)C1", "IC50": "≤ 0.064"}
